In PubChem BioAssay (NCI):
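Five concentrations, 48 hours, 96-well plates. Here, GI50 denotes the concentration required for 50% inhibition of growth. The concentration for full growth arrest is given as TGI.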

Columns and labels:
Test in all cases: NCI anticancer screen, dose series, 48 h
786-0 renal = system: 786-0 renal
A498 renal = system: A498 renal
A549 NSCLC = system: A549 NSCLC
ACHN renal = system: ACHN renal
BT-549 breast = system: BT-549 breast
CAKI-1 renal = system: CAKI-1 renal
CCRF-CEM leukemia = system: CCRF-CEM leukemia
COLO 205 colon = system: COLO 205 colon
DU-145 prostate = system: DU-145 prostate
EKVX NSCLC = system: EKVX NSCLC
HCC-2998 colon = system: HCC-2998 colon
HCT-116 colon = system: HCT-116 colon
HCT-15 colon = system: HCT-15 colon
HL-60(TB) leukemia = system: HL-60(TB) leukemia
HOP-62 NSCLC = system: HOP-62 NSCLC
HOP-92 NSCLC = system: HOP-92 NSCLC
HS 578T breast = system: HS 578T breast
HT29 colon = system: HT29 colon
IGROV1 ovarian = system: IGROV1 ovarian
K-562 leukemia = system: K-562 leukemia
KM12 colon = system: KM12 colon
LOX IMVI melanoma = system: LOX IMVI melanoma
M14 melanoma = system: M14 melanoma
MALME-3M melanoma = system: MALME-3M melanoma
MCF7 breast = system: MCF7 breast
MDA-MB-231 breast = system: MDA-MB-231 breast
MDA-MB-435 = system: MDA-MB-435
MOLT-4 leukemia = system: MOLT-4 leukemia
NCI-H226 lung = system: NCI-H226 lung
NCI-H23 lung = system: NCI-H23 lung
NCI-H460 lung = system: NCI-H460 lung
NCI-H522 lung = system: NCI-H522 lung
NCI/ADR-RES ovarian = system: NCI/ADR-RES ovarian
OVCAR-3 ovarian = system: OVCAR-3 ovarian
OVCAR-4 ovarian = system: OVCAR-4 ovarian
OVCAR-5 ovarian = system: OVCAR-5 ovarian
OVCAR-8 ovarian = system: OVCAR-8 ovarian
PC-3 prostate = system: PC-3 prostate
RPMI-8226 leukemia = system: RPMI-8226 leukemia
RXF 393 renal = system: RXF 393 renal
SF-268 CNS = system: SF-268 CNS
SF-295 CNS = system: SF-295 CNS
SF-539 CNS = system: SF-539 CNS
SK-MEL-2 melanoma = system: SK-MEL-2 melanoma
SK-MEL-28 melanoma = system: SK-MEL-28 melanoma
SK-MEL-5 melanoma = system: SK-MEL-5 melanoma
SK-OV-3 ovarian = system: SK-OV-3 ovarian
SN12C renal = system: SN12C renal
SNB-19 CNS = system: SNB-19 CNS
SNB-75 CNS = system: SNB-75 CNS
SR leukemia = system: SR leukemia
SW-620 colon = system: SW-620 colon
T-47D breast = system: T-47D breast
TK-10 renal = system: TK-10 renal
U251 CNS = system: U251 CNS
UACC-257 melanoma = system: UACC-257 melanoma
UACC-62 melanoma = system: UACC-62 melanoma
UO-31 renal = system: UO-31 renal

SMILES: COc1cc(NCCCCCN=C(N)N)c2ncccc2c1
- GI50 (786-0 renal): 23.8 µM
- TGI (786-0 renal): > 100 µM
- GI50 (A498 renal): 42.5 µM
- TGI (A498 renal): > 100 µM
- GI50 (A549 NSCLC): 30 µM
- TGI (A549 NSCLC): > 100 µM
- GI50 (ACHN renal): 41.5 µM
- TGI (ACHN renal): > 100 µM
- GI50 (BT-549 breast): 5.38 µM
- TGI (BT-549 breast): 18.5 µM
- GI50 (CAKI-1 renal): > 100 µM
- TGI (CAKI-1 renal): > 100 µM
- GI50 (CCRF-CEM leukemia): 5.1 µM
- TGI (CCRF-CEM leukemia): > 74.3 µM
- GI50 (COLO 205 colon): 2.92 µM
- TGI (COLO 205 colon): 9.3 µM
- GI50 (DU-145 prostate): 35.1 µM
- TGI (DU-145 prostate): > 100 µM
- GI50 (EKVX NSCLC): 4.79 µM
- TGI (EKVX NSCLC): > 50.5 µM
- GI50 (HCC-2998 colon): 3.97 µM
- TGI (HCC-2998 colon): > 33.9 µM
- GI50 (HCT-116 colon): 2.74 µM
- TGI (HCT-116 colon): > 63.5 µM
- GI50 (HCT-15 colon): 43.9 µM
- TGI (HCT-15 colon): > 100 µM
- GI50 (HL-60(TB) leukemia): 3.46 µM
- TGI (HL-60(TB) leukemia): 15.2 µM
- GI50 (HOP-62 NSCLC): 10.1 µM
- TGI (HOP-62 NSCLC): > 93.4 µM
- GI50 (HOP-92 NSCLC): 2.69 µM
- TGI (HOP-92 NSCLC): 40.4 µM
- GI50 (HS 578T breast): 19 µM
- TGI (HS 578T breast): > 65.4 µM
- GI50 (HT29 colon): 5.97 µM
- TGI (HT29 colon): > 80.7 µM
- GI50 (IGROV1 ovarian): 1.03 µM
- TGI (IGROV1 ovarian): > 36 µM
- GI50 (K-562 leukemia): 5.16 µM
- TGI (K-562 leukemia): > 88.2 µM
- GI50 (KM12 colon): 2.04 µM
- TGI (KM12 colon): 14.5 µM
- GI50 (LOX IMVI melanoma): 8.21 µM
- TGI (LOX IMVI melanoma): > 56.1 µM
- GI50 (M14 melanoma): 17.7 µM
- TGI (M14 melanoma): 54.1 µM
- GI50 (MALME-3M melanoma): 1.97 µM
- TGI (MALME-3M melanoma): 8.92 µM
- GI50 (MCF7 breast): 0.179 µM
- TGI (MCF7 breast): 1.11 µM
- GI50 (MDA-MB-231 breast): 2.65 µM
- TGI (MDA-MB-231 breast): 12.3 µM
- GI50 (MDA-MB-435): 16.7 µM
- TGI (MDA-MB-435): 42.3 µM
- GI50 (MOLT-4 leukemia): 4.53 µM
- TGI (MOLT-4 leukemia): > 74.4 µM
- GI50 (NCI-H226 lung): 16.8 µM
- TGI (NCI-H226 lung): > 100 µM
- GI50 (NCI-H23 lung): 1.74 µM
- TGI (NCI-H23 lung): 18.9 µM
- GI50 (NCI-H460 lung): 7.09 µM
- TGI (NCI-H460 lung): > 57.5 µM
- GI50 (NCI-H522 lung): 0.369 µM
- TGI (NCI-H522 lung): 4.85 µM
- GI50 (NCI/ADR-RES ovarian): > 100 µM
- TGI (NCI/ADR-RES ovarian): > 100 µM
- GI50 (OVCAR-3 ovarian): 0.468 µM
- TGI (OVCAR-3 ovarian): 9.03 µM
- GI50 (OVCAR-4 ovarian): 0.043 µM
- TGI (OVCAR-4 ovarian): 0.953 µM
- GI50 (OVCAR-5 ovarian): 5.73 µM
- TGI (OVCAR-5 ovarian): 30 µM
- GI50 (OVCAR-8 ovarian): 4.24 µM
- TGI (OVCAR-8 ovarian): > 71.7 µM
- GI50 (PC-3 prostate): 3.47 µM
- TGI (PC-3 prostate): > 49.6 µM
- GI50 (RPMI-8226 leukemia): 5.45 µM
- TGI (RPMI-8226 leukemia): 33.5 µM
- GI50 (RXF 393 renal): 24.9 µM
- TGI (RXF 393 renal): > 94.7 µM
- GI50 (SF-268 CNS): 3.59 µM
- TGI (SF-268 CNS): 22.6 µM
- GI50 (SF-295 CNS): 17.1 µM
- TGI (SF-295 CNS): 97.8 µM
- GI50 (SF-539 CNS): 4.68 µM
- TGI (SF-539 CNS): 19.4 µM
- GI50 (SK-MEL-2 melanoma): 3.31 µM
- TGI (SK-MEL-2 melanoma): 16.1 µM
- GI50 (SK-MEL-28 melanoma): 14.6 µM
- TGI (SK-MEL-28 melanoma): 38.6 µM
- GI50 (SK-MEL-5 melanoma): 2.31 µM
- TGI (SK-MEL-5 melanoma): 6.86 µM
- GI50 (SK-OV-3 ovarian): 60 µM
- TGI (SK-OV-3 ovarian): > 100 µM
- GI50 (SN12C renal): 3.57 µM
- TGI (SN12C renal): 13.7 µM
- GI50 (SNB-19 CNS): 5.62 µM
- TGI (SNB-19 CNS): 30.3 µM
- GI50 (SNB-75 CNS): 3.25 µM
- TGI (SNB-75 CNS): 16.6 µM
- GI50 (SR leukemia): 6.28 µM
- TGI (SR leukemia): 40.6 µM
- GI50 (SW-620 colon): 4.97 µM
- TGI (SW-620 colon): > 100 µM
- GI50 (T-47D breast): 1.07 µM
- TGI (T-47D breast): 6.98 µM
- GI50 (TK-10 renal): 3.43 µM
- TGI (TK-10 renal): 17.1 µM
- GI50 (U251 CNS): 3.23 µM
- TGI (U251 CNS): 25.8 µM
- GI50 (UACC-257 melanoma): 4.38 µM
- TGI (UACC-257 melanoma): 16.7 µM
- GI50 (UACC-62 melanoma): 7.2 µM
- TGI (UACC-62 melanoma): 24 µM
- GI50 (UO-31 renal): > 100 µM
- TGI (UO-31 renal): > 100 µM
